Values quoted from earlier work in patent publication US7662599B2, “Nucleic acids and polypeptides involved in the production of cryptophycin” (priority 2004, dated 2010).

Conditions: comparison in words

COc1ccc(C[C@H]2NC(=O)/C=C/C[C@@H]([C@H](C)[C@H]3O[C@@H]3c3ccccc3)OC(=O)[C@H](CC(C)C)OC(=O)[C@H](C)CNC2=O)cc1Cl [Cryptophycin 1]
activity relative to other cryptophycins: the most active natural compound
